Values quoted from earlier work, collected in US11465999B2, “Process for preparing Alectinib or a pharmaceutically acceptable salt thereof” (FRESENIUS KABI ONCOLOGY LIMITED, priority 2017, dated 2022).
Where a name gives a salt, the structure may show the parent alone.

Assays:
[1] = in water across the whole pH range and in different solvents
[2] = high humidity: absorbs moisture to form a tetrahydrate; low humidity: dehydrates to anhydrate; drying

SMILES	solubility [1]	stability of crystalline form [2]
CCc1cc2c(cc1N1CCC(N3CCOCC3)CC1)C(C)(C)c1[nH]c3cc(C#N)ccc3c1C2=O [Alectinib hydrochloride]	insoluble	
CCc1cc2c(cc1N1CCC(N3CCOCC3)CC1)C(C)(C)c1[nH]c3cc(C#N)ccc3c1C2=O.Cl [type III]		converts to type II on drying
CCc1cc2c(cc1N1CCC(N3CCOCC3)CC1)C(C)(C)c1[nH]c3cc(C#N)ccc3c1C2=O.Cl [type II]		not stable
